Results reported in PubChem BioAssay AID2060487 (Molecular Pharmacology Branch, DTP, NCI, 2025).

System: 997537-175-T-J1-PDC complex spheroid viability
Experiment: Anticancer human tumor 997537-175-T-J1-PDC patient-derived colon adenocarcinoma cell line growth inhibition [GQUAD]
Settings: for IC50: curve of first compound; for viability, T/C: stronger effect = lower value; active = viability on the fitted dose curve at most 10% of control; inactive = the rest
From the text: DNA G-quadruplex Stabilizer Agents in Combinations in Complex Spheroids
A high-throughput screen of multi-cell type tumor spheroids was designed to identify active combinations of DNA G-quadruplex stabilizer agents and targeted small molecules. Complex spheroids include a stromal component modeled by human endothelial cells (HUVEC) and fibroblasts modeled by human mesenchymal stem cells (MSCs). The concentration ranges selected for each drug and investigational agent were based upon clinically achievable concentrations if the clinical Cmax of the agent was known.
Compounds. The drugs and investigational agents: pidnarulex (CX-5461; NSC782164), APTO-253 (NSC789042), BRACO-19 (NSC847499), peposertib (NSC802822), ceralasertib (NSC780249), elimusertib (NSC800525), camonsertib (NSC841442), AZD-1390 (NSC803789), olaparib (NSC753686), talazoparib (NSC767125), ART-558 (NSC835418), sotorasib (NSC818433), MRTX-1133 (NSC836407), SN-38 (NSC673596), topotecan (NSC609699), etoposide (NSC141540), doxorubicin (NSC123127), gemcitabine (NSC613327), 5-fluorouracil (NSC19893), paclitaxel (NSC125973), vemurafenib (NSC761431), panobinostat (NSC761190), R-306465 (JNJ-16241199; NSC773264), adavosertib (NSC754352), TP-3654 (NSC805149), carboplatin (NSC241240), KSQ-4279 (NSC840948), and staurosporine (NSC755774) were obtained from the National Cancer Institute (NCI) Developmental Therapeutics Program Chemical Repository (34). The FDA-approved anticancer drug set is available from the NCI Developmental Therapeutics Program. […] The stock solutions were prepared in dimethyl sulfoxide (DMSO, Sigma-Aldrich, St. Louis, MO, cat. D2650) at 800-fold the tested concentration and stored at -70 degrees C prior to their use. All drugs and investigational agents were tested over a range starting from a high concentration at or near the clinical Cmax and decreasing in half-log increments. If the clinical Cmax for an agent had not been determined, the highest concentration tested was 10 microM.
2.3 Cell Culture. All cells were maintained in an incubator at 37 degrees C and 5% CO2 with 95% humidity. The PDC lines were cultured according to standard operating procedures established by the NCI PDMR. All PDCs were thawed and cultured in Matrigel-coated flasks prepared with a working solution of 1X Ham's F-12 nutrient mix, without supplementation (Invitrogen, cat. 11765054), 100 U/mL penicillin-streptomycin (Invitrogen, cat. 15140122), and 2.5% Matrigel (Corning Inc., cat. 354248) for the first three passages. The 857933-349-R-J2-PDC line was cultured in 6C/Colon 1B media, which includes advanced DMEM/F-12 (Thermo Fisher Scientific, cat. 12634028), 10 mM HEPES (Thermo Fisher Scientific, cat. 15630080), 1X GlutaMAX supplement (Thermo Fisher Scientific, cat. 35050061), 0.1 mg/mL primocin (InvivoGen, cat. ant-pm-2), 10% defined fetal bovine serum, heat inactivated (HyClone Laboratories Inc., cat. SH30070.03HI), 50% L-WRN conditioned media (ATCC, cat. CRL-3276), 1.25 mM N-Acetyl-L-cysteine (Sigma-Aldrich, cat. A9165), 10 mM nicotinamide (Sigma-Aldrich, cat. N0636), 1X B-27 supplement (Thermo Fisher Scientific, cat. 17504044), 1X N-2 supplement (Thermo Fisher Scientific, cat. 17502048), 10 microM Y-27632 dihydrochloride (Tocris Bioscience, cat. 1254), and 50 ng/mL human EGF recombinant protein (Thermo Fisher Scientific, cat. PHG0311). The 485176-168-R4-J1-PDC line was cultured in Panc media, which includes all 6C/Colon 1B media components plus 100 ng/mL human FGF-10 (Thermo Fisher Scientific, cat. 100-26), 500 nM SB-431542 (Selleckchem, cat. S1067), and gastrin (Tocris, cat. 3006).
[…]

[1] = second compound 0.0316 µM, first compound 0.000999 µM
[2] = second compound 0.0316 µM, first compound 0.00316 µM
[3] = second compound 0.0316 µM, first compound 0.00999 µM
[4] = second compound 0.0316 µM, first compound 0.0316 µM
[5] = second compound 0.0316 µM, first compound 0.0999 µM
[6] = second compound 0.0316 µM, first compound 0.316 µM
[7] = second compound 0.1 µM, first compound 0.000999 µM
[8] = second compound 0.1 µM, first compound 0.00316 µM
[9] = second compound 0.1 µM, first compound 0.00999 µM
[10] = second compound 0.1 µM, first compound 0.0316 µM
[11] = second compound 0.1 µM, first compound 0.0999 µM
[12] = second compound 0.1 µM, first compound 0.316 µM
[13] = second compound 0.316 µM, first compound 0.000999 µM
[14] = second compound 0.316 µM, first compound 0.00316 µM
[15] = second compound 0.316 µM, first compound 0.00999 µM
[16] = second compound 0.316 µM, first compound 0.0316 µM
[17] = second compound 0.316 µM, first compound 0.0999 µM
[18] = second compound 0.316 µM, first compound 0.316 µM
[19] = second compound 1 µM, first compound 0.000999 µM
[20] = second compound 1 µM, first compound 0.00316 µM
[21] = second compound 1 µM, first compound 0.00999 µM
[22] = second compound 1 µM, first compound 0.0316 µM
[23] = second compound 1 µM, first compound 0.0999 µM
[24] = second compound 1 µM, first compound 0.316 µM
[25] = second compound 3.16 µM, first compound 0.000999 µM
[26] = second compound 3.16 µM, first compound 0.00316 µM
[27] = second compound 3.16 µM, first compound 0.00999 µM
[28] = second compound 3.16 µM, first compound 0.0316 µM
[29] = second compound 3.16 µM, first compound 0.0999 µM
[30] = second compound 3.16 µM, first compound 0.316 µM
[31] = second compound 10 µM, first compound 0.000999 µM
[32] = second compound 10 µM, first compound 0.00316 µM
[33] = second compound 10 µM, first compound 0.00999 µM
[34] = second compound 10 µM, first compound 0.0316 µM
[35] = second compound 10 µM, first compound 0.0999 µM
[36] = second compound 10 µM, first compound 0.316 µM
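Also: spheroids exposed to the agents for 7 days.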

Cc1[nH]c2ccccc2c1CCNCc1ccc(/C=C/C(=O)NO)cc1 + CN(C)c1ccc(Nc2c3ccc(NC(=O)CCN4CCCC4)cc3nc3cc(NC(=O)CCN4CCCC4)ccc23)cc1
0.199 µM: IC50 (second compound 1 µM)
0.301 µM: IC50 (second compound 0.0316 µM)
0.237 µM: IC50 (second compound 10 µM)
0.252 µM: IC50 (second compound 0.316 µM)
inactive: viability, T/C [1] 103% | viability, T/C [2] 74.8% | viability, T/C [3] 85% | viability, T/C [4] 102% | viability, T/C [5] 77.2% | viability, T/C [6] 48.8% | viability, T/C [7] 97.8% | viability, T/C [8] 86% | viability, T/C [9] 79.2% | viability, T/C [10] 94% | viability, T/C [11] 78.8% | viability, T/C [12] 42.4% | viability, T/C [13] 91.5% | viability, T/C [14] 81.8% | viability, T/C [15] 88% | viability, T/C [16] 80.9% | viability, T/C [17] 93.3% | viability, T/C [18] 41% | viability, T/C [19] 88.5% | viability, T/C [20] 77.1% | viability, T/C [21] 87.5% | viability, T/C [22] 80.8% | viability, T/C [23] 96.1% | viability, T/C [24] 26% | viability, T/C [25] 89.5% | viability, T/C [26] 74.9% | viability, T/C [27] 87.6% | viability, T/C [28] 68% | viability, T/C [29] 91.6% | viability, T/C [30] 55% | viability, T/C [31] 82.3% | viability, T/C [32] 56.7% | viability, T/C [33] 96.1% | viability, T/C [34] 81.1% | viability, T/C [35] 98.8% | viability, T/C [36] 39%
> 0.316 µM: IC50 (second compound 3.16 µM)
0.253 µM: IC50 (second compound 0.1 µM)

CC[C@@]1(O)C(=O)OCc2c1cc1n(c2=O)Cc2cc3c(CN(C)C)c(O)ccc3nc2-1 + Cc1cnc(CNC(=O)c2c(=O)c3ccc(N4CCCN(C)CC4)nc3n3c2sc2ccccc23)cn1
inactive: viability, T/C [1] 108% | viability, T/C [2] 104% | viability, T/C [3] 97.8% | viability, T/C [4] 82% | viability, T/C [5] 72.3% | viability, T/C [6] 80.4% | viability, T/C [7] 97.8% | viability, T/C [8] 97.5% | viability, T/C [9] 92.7% | viability, T/C [10] 90.1% | viability, T/C [11] 97.5% | viability, T/C [12] 58% | viability, T/C [13] 92.8% | viability, T/C [14] 88.8% | viability, T/C [15] 105% | viability, T/C [16] 85% | viability, T/C [17] 98.8% | viability, T/C [18] 66.3% | viability, T/C [19] 89.8% | viability, T/C [20] 93.5% | viability, T/C [21] 101% | viability, T/C [22] 93.5% | viability, T/C [23] 108% | viability, T/C [24] 59% | viability, T/C [25] 75% | viability, T/C [26] 104% | viability, T/C [27] 118% | viability, T/C [28] 89.7% | viability, T/C [29] 96.1% | viability, T/C [30] 58.8% | viability, T/C [31] 97.7% | viability, T/C [32] 108% | viability, T/C [33] 130% | viability, T/C [34] 69% | viability, T/C [35] 94.5% | viability, T/C [36] 70.2%
> 0.316 µM: IC50 (second compound 0.0316 µM) | IC50 (second compound 0.1 µM) | IC50 (second compound 0.316 µM) | IC50 (second compound 1 µM) | IC50 (second compound 3.16 µM) | IC50 (second compound 10 µM)
